Source: US20010044445A1, “AZOLE INHIBITORS OF CYTOKINE PRODUCTION” (priority 1999, published 2001)
pIC50: −log10 of the molar value.

Tests used:
[1] = system: Human peripheral blood mononuclear cells; experiment: Human Concanavalin-A Proliferation Assay (Con HU Assay); type: cell-based; conditions: Homo sapiens, PBMC, concanavalin-A stimulated human PBMC; for inhibition at 1 µM / inhibition at 10 µM / inhibition at 100 µM: 72 h, 3 days, read-out: % Inhibition of proliferation (at concentrations of 1,10, or 100 μm); for inhibition at 1 µM: concentration 1 μm (in parentheses in the cell); for inhibition at 10 µM: concentration 10 μm (in parentheses in the cell); for pIC50: tritiated thymidine; for inhibition at 100 µM: concentration 100 μm (in parentheses in the cell)
In short: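 Histopaque-isolated human PBMC (50,000/well) were pre-incubated 15 min with compounds, then stimulated with concanavalin-A at 2.5 μg/ml final for 3 days at 37 °C, 5% CO2. Proliferation measured by 6 h pulse with 0.5 μCi/well [3H]thymidine and beta counting.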

Row | SMILES | melting point [°C] | inhibition at 1 µM [1] [%] | inhibition at 10 µM [1] [%] | pIC50 [1] | inhibition at 100 µM [1] [%]
1 | O=C(Nc1ccc(-n2nc(C(F)(F)F)cc2C(F)(F)F)cc1)c1cc(F)c(F)c(F)c1F [Example 235, N-[4-[3,5-bis(trifluoromethyl)-1H-pyrazol-1-yl]phenyl]-2,3,4,5-tetrafluorobenzamide] | 138 to 140 | – | 100 | 6.97 | –
2 | Cc1noc(C)c1C(=O)Nc1ccc(-n2nc(C(F)(F)F)cc2C(F)(F)F)c(C(F)(F)F)c1 [Example 275, N-[4-[3,5-bis(trifluoromethyl)-1H-pyrazol-1-yl]-3-(trifluoromethyl)phenyl]-3,5-dimethyl-4-isoxazolecarboxamide] | 61 to 63 | 8 | – | – | –
3 | COc1cc(-n2nc(C(F)(F)F)cc2C(F)(F)F)ccc1NC(=O)c1snnc1C [Example 280, N-[4-[3,5-bis(trifluoromethyl)-1H-pyrazol-1-yl]-2-methoxyphenyl]-4-methyl-1,2,3-thiadiazole-5-carboxamide] | 119 to 121 | – | 16 | – | –
4 | O=C(Nc1ccc(-n2nc(C(F)(F)F)cc2Cl)cc1)c1ccncc1Cl [Example 346, 3-chloro-N-(4-(5-chloro-3-(trifluoromethyl)-1H-pyrazol-1-yl)phenyl)isonicotinamide] | 184 to 185 | – | – | 6.93 | –
5 | O=C(Nc1ccc(-n2nc(C(F)(F)F)cc2C(F)(F)F)cc1)c1c(F)c(F)cc(F)c1F [Example 234, N-[4-[3,5-bis(trifluoromethyl)-1H-pyrazol-1-yl]phenyl]-2,3,5,6-tetrafluorobenzamide] | 235 to 237 | – | 99 | 7.21 | –
6 | O=C(Nc1cccc(-n2nc(C(F)(F)F)cc2C(F)(F)F)c1)c1cccc(Cl)c1Cl [Example 198, N-[3-[3,5-bis(trifluoromethyl)-1H-pyrazol-1-yl]phenyl]-2,3-dichlorobenzamide] | 119 to 121 | 4 | – | – | –
7 | CC(C)(C)OC(=O)N1CSCC1C(=O)Nc1ccc(-n2nc(C(F)(F)F)cc2C(F)(F)F)cc1 (stereo not drawn) [Example 258, 1,1-Dimethylethyl 4-[[[4-[3,5-bis(trifluoromethyl)-1H-pyrazol-1-yl]phenyl]amino]carbonyl]-3-thiazolidinecarboxylate] | 82 to 84 | 16 | – | – | –
8 | C=C(C)C(=O)Nc1ccc(-n2nc(C(F)(F)F)cc2C(F)(F)F)cc1 [Example 295, N-(4-(3,5-bis(trifluoromethyl)-1H-pyrazol-1-yl)phenyl)-2-methylacrylamide] | 160 to 162 | – | – | 6.63 | –
9 | Cc1nc(C)c(C(=O)Nc2ccc(-n3nc(C(F)(F)F)cc3C(F)(F)F)cc2)s1 [Example 105, N-[4-[3,5-bis(trifluoromethyl)-1H-pyrazol-1-yl]phenyl]-2,4-dimethyl-5-thiazolecarboxamide] | 158 to 159 | – | 100 | 6.41 | –
10 | Cc1ccc(C(=O)Nc2ccc(-n3nc(C(F)(F)F)cc3C(F)(F)F)cc2)c(Cl)n1 [Example 151, N-[4-[3,5-bis(trifluoromethyl)-1H-pyrazol-1-yl]phenyl]-2-chloro-6-methyl-3-pyridinecarboxamide] | 155 to 156 | – | – | 6.53 | 99
11 | Cc1nnsc1C(=O)Nc1ccc(-n2nc(C(F)(F)F)cc2C(F)(F)F)c(C(F)(F)F)c1 [Example 276, N-[4-[3,5-bis(trifluoromethyl)-1H-pyrazol-1-yl]-3-(trifluoromethyl)phenyl]-4-methyl-1,2,3-thiadiazole-5-carboxamide] | 134 to 136 | 16 | – | – | –
12 | COc1c(C(=O)Nc2ccc(-n3nc(C(F)(F)F)cc3C(F)(F)F)cc2)csc1Cl [Example 267, N-[4-[3,5-bis(trifluoromethyl)-1H-pyrazol-1-yl]phenyl]-5-chloro-4-methoxy-3-thiophenecarboxamide] | 119 to 120 | 38 | – | – | –
13 | O=C(Nc1ccc(-n2nc(C(F)(F)F)cc2C(F)(F)F)cc1)c1cc(F)c(F)cc1F [Example 228, N-[4-[3,5-bis(trifluoromethyl)-1H-pyrazol-1-yl]phenyl]-2,4,5-trifluorobenzamide] | 109 to 111 | – | 99 | 6.83 | –
14 | CCC(NC(=O)OCc1ccccc1)C(=O)Nc1ccc(-n2nc(C(F)(F)F)cc2C(F)(F)F)cc1 (stereo not drawn) [Example 28, phenylmethyl [1-[[[4-[3,5-bis(trifluoromethyl)-1H-pyrazol-1-yl]phenyl]amino]carbonyl]propyl]carbamate] | 158 to 160 | 12 | – | – | –
15 | CC1(C(=O)Nc2ccc(-n3nc(C(F)(F)F)cc3C(F)(F)F)cc2)C=CCCC1 (stereo not drawn) [Example 9, N-[4-[3,5-bis(trifluoromethyl)-1H-pyrazol-1-yl]phenyl]-1-methyl-2-cyclohexene-1-carboxamide] | 108 to 110 | 35 | – | – | –
16 | Cc1noc(C)c1C(=O)Nc1ccc(-n2nc(C(F)(F)F)cc2C(F)(F)F)c(Cl)c1 [Example 277, N-[4-[3,5-bis(trifluoromethyl)-1H-pyrazol-1-yl]-3-chlorophenyl]-3,5-dimethyl-4-isoxazolecarboxamide] | 64 to 65 | – | – | 5.97 | 99
17 | COc1cc(Cl)ccc1C(=O)Nc1ccc(-n2nc(C(F)(F)F)cc2C(F)(F)F)cc1 [Example 176, N-[4-[3,5-Bis(trifluoromethyl)-1H-pyrazol-1-yl]phenyl]-4-chloro-2-methoxybenzamide] | 178 to 180 | 12 | – | – | –

Second part, led by results:

Row | melting point [°C] | SMILES | inhibition at 1 µM [1] [%] | inhibition at 10 µM [1] [%] | pIC50 [1] | inhibition at 100 µM [1] [%]
18 | 230 to 231 | CC(=O)c1ccc(NC(=O)Nc2ccc(-n3nc(C(F)(F)F)cc3C(F)(F)F)cc2)cc1 [Example 42, N-(4-acetylphenyl)-N′-[4-[3,5-bis(trifluoromethyl)-1H-pyrazol-1-yl]phenyl]urea] | 9 | – | – | –
19 | 169 to 171 | N#Cc1ccc(C(=O)Nc2ccc(-n3nc(C(F)(F)F)cc3C(F)(F)F)cc2)cc1 [Example 67, N-[4-[3,5-bis(trifluoromethyl)-1H-pyrazol-1-yl]phenyl]-4-cyanobenzamide] | – | – | 6.60 | 100
20 | 183 to 185 | O=C(Nc1ccc(-n2nc(C(F)(F)F)cc2C(F)(F)F)cc1)c1ccc(F)c(F)c1 [Example 218, N-[4-[3,5-bis(trifluoromethyl)-1H-pyrazol-1-yl]phenyl]-3,4-difluorobenzamide] | – | 100 | 6.87 | –
21 | 173 to 175 | O=C(Nc1ccccc1[N+](=O)[O-])c1ccc(-n2nc(C(F)(F)F)cc2C(F)(F)F)cc1 [Example 190, 4-[3,5-Bis(trifluoromethyl)-1H-pyrazol-1-yl]-N-(2-nitrophenyl)benzamide] | 3 | – | – | –
22 | > 240 | O=C(Nc1ccc(-n2nc(C(F)(F)F)cc2C(F)(F)F)cc1)c1ccc[nH]1 [Example 166, N-[4-[3,5-bis(trifluoromethyl)-1H-pyrazol-1-yl]phenyl]-1H-pyrrole-2-carboxamide] | 11 | – | – | –
23 | 192 to 193 | N#Cc1ccc(NC(=O)c2ccc(-n3nc(C(F)(F)F)cc3C(F)(F)F)cc2)cc1 [Example 193, 4-[3,5-Bis(trifluoromethyl)-1H-pyrazol-1-yl]-N-(4-cyanophenyl)benzamide] | 8 | – | – | –
24 | 213 to 214 | O=C(Nc1ccc(-n2nc(C(F)(F)F)cc2C(F)(F)F)cc1)c1ccc(CO)cc1 [Example 107, N-[4-[3,5-bis(trifluoromethyl)-1H-pyrazol-1-yl]phenyl]-4-(hydroxymethyl)benzamide] | – | 99 | 6.52 | –
25 | 203 to 204 | O=C(Nc1ccc(-n2nc(C(F)(F)F)cc2C(F)(F)F)cc1)c1cccc([N+](=O)[O-])c1 [Example 140, N-[4-[3,5-bis(trifluoromethyl)-1H-pyrazol-1-yl]phenyl]-3-nitrobenzamide] | – | – | 6.53 | 100
26 | 183 to 184 | O=C(Nc1ccc(-n2nc(C(F)(F)F)cc2C(F)(F)F)cc1)c1ccnc(Cl)c1 [Example 245, N-[4-[3,5-bis(trifluoromethyl)-1H-pyrazol-1-yl]phenyl]-2-chloro-4-pyridinecarboxamide] | – | – | 6.55 | 100
27 | 203 to 204 | CC(=O)c1ccc(C(=O)Nc2ccc(-n3nc(C(F)(F)F)cc3C(F)(F)F)cc2)cc1 [Example 119, 4-Acetyl-N-[4-[3,5-bis(trifluoromethyl)-1H-pyrazol-1-yl]phenyl]benzamide] | – | 100 | 6.24 | –
28 | 201 to 202 | O=C(Nc1ccc(F)cc1)Nc1ccc(-n2nc(C(F)(F)F)cc2C(F)(F)F)cc1 [Example 32, N-[4-[3,5-bis(trifluoromethyl)-1H-pyrazol-1-yl]phenyl]-N′-(4-fluorophenyl)urea] | – | – | 5.07 | 100
29 | 113 to 116 | O=C(Nc1ccc(-n2nc(C(F)(F)F)cc2C(F)(F)F)cc1)c1cccc(Cl)c1F [Example 214, N-[4-[3,5-bis(trifluoromethyl)-1H-pyrazol-1-yl]phenyl]-3-chloro-2-fluorobenzamide] | – | 100 | 7.17 | –
30 | 145 to 147 | O=C(Nc1ccc(-n2nc(C(F)(F)F)cc2C(F)(F)F)cc1)c1cccnc1Cl [Example 150, N-[4-[3,5-bis(trifluoromethyl)-1H-pyrazol-1-yl]phenyl]-2-chloro-3-pyridinecarboxamide] | – | – | 6.61 | 100
